# Laboratory results as given in ChEMBL document CHEMBL5247633, “Discovery of novel analogs of KHS101 as transforming acidic coiled coil containing protein 3 (TACC3) inhibitors for the treatment of glioblastoma” (Eur J Med Chem, 2022).
# Active and inactive are the calls of the source. The rule behind the calls is not given here.
# Assays:
# MDA-MB-231 = assay: Antiproliferative activity against human MDA-MB-231 cells assessed as cell growth inhibition measured after 72 hrs by MTT assay; assay type: functional, cell-based; settings: MDA-MB-231, 72 h
# [1] = Antiproliferative activity against human HLF1 cells assessed as cell growth inhibition measured after 72 hrs by MTT assay; assay type: functional, cell-based; settings: HLF1, 72 h
# [2] = Cytotoxicity against human U251 cells assessed as inhibition of cell growth measured after 72 hrs by MTT assay; assay type: toxicity, cell-based, U-251
# SK-OV-3 = assay: Antiproliferative activity against human SK-OV-3 cells assessed as cell growth inhibition measured after 72 hrs by MTT assay; assay type: functional, cell-based; settings: SK-OV-3, 72 h
# JIMT-1 = assay: Antiproliferative activity against human JIMT-1 cells assessed as cell growth inhibition measured after 72 hrs by MTT assay; assay type: functional, cell-based; settings: JIMT-1, 72 h
# [3] = Antiproliferative activity against human U87 cells assessed as inhibition of cell growth incubated for 72 hrs by MTT assay; assay type: functional, cell-based, U-87MG ATCC; settings: U-87 MG
# [4] = Cytotoxicity against human U87 cells assessed as reduction in cell viability measured after 24 hrs by MTT assay; assay type: toxicity, cell-based, U-87MG ATCC
# [5] = Toxicity in BALB/c mouse transplanted with human U87 cells assessed as effect in body weight at 20 mg/kg, iv; assay type: organism-based, U-87MG ATCC; settings: in vivo
# U-87MG ATCC [6] = assay: Antitumor activity against human U87 cells xenografted in BALB/c mouse model assessed as tumor growth regression at 20 mg/kg, iv measured on day 20; assay type: functional, organism-based
# U-87MG ATCC [7] = assay: Induction of ROS generation in human U87 cells at incubated for 36 hrs by DCF-DA based flow cytometry analysis; assay type: functional, cell-based; settings: dose 1-4 µM
# U-87MG ATCC [8] = assay: Antitumor activity against human U87 cells xenografted in BALB/c mouse model assessed as decrease in Ki67 positive cells at 20 mg/kg, iv; assay type: functional, organism-based
# [9] = Induction of mitochondrial membrane potential loss in human U87 cells assessed as increase in green fluorescence intensity at 0 to 4 uM incubated for 36 hrs by JC-1 staining based flow cytometry relative to control (reference value: 9.34 %); assay type: functional, U-87MG ATCC; settings: dose 0-4 µM
# [10] = Induction of cell cycle arrest in human U87 cells assessed as decrease in accumulation at G1 phase at 4 uM after 36 hrs by propidium iodide staining based flow cytometric analysis relative to control (reference value: 51.7 %); assay type: functional, U-87MG ATCC; design: scale not given: the % may be the effect or the level left
# U-87MG ATCC [11] = assay: Antiproliferative activity against shRNA mediated TACC3 knockdown human U87 cells assessed as reduction in cell viability; assay type: functional, cell-based
# [12] = Induction of ROS generation in human U87 cells at 4 uM incubated for 36 hrs by DCF-DA based flow cytometry analysis relative to control (Rvb= 4.01 %); assay type: functional, U-87MG ATCC
# [13] = Antitumor activity against human U87 cells xenografted in BALB/c mouse model assessed as reduction in tumor weight at 20 mg/kg, iv measured on day 20; assay type: functional, U-87MG ATCC; design: scale not given: the % may be the effect or the level left
# [14] = Stability in mouse plasma assessed as half life; assay type: ADME, cell-free
# [15] = molecular target: Transforming acidic coiled-coil-containing protein 3 (Homo sapiens) (UniProt Q9Y6A5); assay: Inhibition of TACC3 in human U87 cells assessed as stabilization of protein by measuring shift in thermal melting curve at 10 uM in presence of pronase incubated for 6 hrs by cellular thermal shift assay; assay type: cell-based
# [16] = Induction of cell cycle arrest in human U87 cells assessed as increase in accumulation at G2/M phase at 4 uM after 36 hrs by propidium iodide staining based flow cytometric analysis relative to control (reference value: 15.3 %); assay type: functional, U-87MG ATCC
# U-87MG ATCC [17] = assay: Induction of cell cycle arrest in human U87 cells assessed as increase in accumulation at G2/M phase at 2 uM after 24 hrs by propidium iodide staining based flow cytometric analysis; assay type: functional
# [18] = Inhibition of cell invasion in human U87 cells assessed as reduction in number of cells invaded at 2 uM incubated for 24 hrs by matrigel-coated transwell assay (reference value: 154.3%); assay type: functional, U-87MG ATCC
# U-87MG ATCC [19] = assay: Induction of apoptosis in human U87 cells assessed as increase in number of apoptotic cells by Hoechst 33258 staining method; assay type: functional, cell-based
# U-87MG ATCC [20] = assay: Antitumor activity against human U87 cells xenografted in BALB/c mouse model assessed as increase in apoptotic cells at 20 mg/kg, iv by TUNEL assay; assay type: functional, organism-based
# [21] = Inhibition of cell invasion in human U87 cells assessed as reduction in number of cells invaded at 4 uM incubated for 24 hrs by matrigel-coated transwell assay (reference value: 154.3%); assay type: functional, U-87MG ATCC
# [22] = molecular target: Transforming acidic coiled-coil-containing protein 3 (Homo sapiens) (UniProt Q9Y6A5); assay: Inhibition of TACC3 in human U87 cells assessed as stabilization of protein by measuring shift in thermal melting curve at 10 uM incubated for 6 hrs by cellular thermal shift assay; assay type: cell-based
# [23] = Inhibition of cell invasion in human U87 cells assessed as reduction in number of cells invaded at 1 uM incubated for 24 hrs by matrigel-coated transwell assay (reference value: 154.3%); assay type: functional, U-87MG ATCC
# [24] = Induction of cell cycle arrest in shRNA induced in human U87 cells assessed as accumulation at G2/M phase at 1 to 4 uM by propidium iodide staining based flow cytometric analysis relative to control (reference value: 14.95 %); assay type: functional, U-87MG ATCC; settings: dose 1-4 µM
# [25] = Stability in human plasma assessed as half life; assay type: ADME, cell-free
# [26] = Induction of apoptosis in human U87 cells assessed as late apoptosis at 4 uM incubated for 36 hrs by AnnexinV/propidium iodide staining based flow cytometry method relative to control (reference value: 0.52 %); assay type: functional, U-87MG ATCC
# U-87MG ATCC [27] = assay: Induction of apoptosis in human U87 cells by AnnexinV/PI staining assay; assay type: functional, cell-based; settings: dose 1-4 µM
# [28] = Induction of apoptosis in human U87 cells assessed as early apoptosis at 4 uM incubated for 36 hrs by AnnexinV/propidium iodide staining based flow cytometry method relative to control (reference value: 4.49 %); assay type: functional, U-87MG ATCC
# U-87MG ATCC [29] = assay: Inhibition of cell migration in human U87 cells assessed as reduction in cell migration incubated for 24 hrs by wound healing assay; assay type: functional, cell-based
structure (smiles),measurement,setting,value
CCCN(CCC)c1ccnc(NCc2csc(-c3ccccc3)n2)n1,IC50,MDA-MB-231,23.2 µM
same,IC50,[1],46.9 µM
same,IC50 at 72 h,[2],16.2 µM
same,IC50,SK-OV-3,22.2 µM
same,IC50,JIMT-1,16.9 µM
same,IC50,[3],16.4 µM
CC(C)CNc1ccnc(NC(=O)c2csc(-c3ccccc3)n2)n1,IC50,MDA-MB-231,> 100 µM
same,IC50 at 72 h,[2],92.1 µM
same,IC50,SK-OV-3,83.5 µM
same,IC50,JIMT-1,> 100 µM
same,IC50,[3],59.1 µM
CC(C)CNc1ccnc(NCc2csc(-c3ccccc3)c2)n1,IC50,MDA-MB-231,27.4 µM
same,IC50,[1],61.2 µM
same,IC50 at 72 h,[2],25.8 µM
same,IC50,SK-OV-3,26.2 µM
same,IC50,JIMT-1,42.2 µM
same,IC50,[3],30.7 µM
c1ccc(-c2nc(CNc3nccc(NC4CCCCC4)n3)cs2)cc1,IC50,MDA-MB-231,18.4 µM
same,IC50,[1],28.2 µM
same,IC50 at 72 h,[2],10.8 µM
same,IC50,SK-OV-3,12.5 µM
same,IC50,JIMT-1,19.4 µM
same,IC50,[3],11.6 µM
c1ccc(-c2nc(CNc3nccc(N4CCCC4)n3)cs2)cc1,IC50,MDA-MB-231,18.3 µM
same,IC50,[1],61.8 µM
same,IC50 at 72 h,[2],17.4 µM
same,IC50,SK-OV-3,20.2 µM
same,IC50,JIMT-1,29.6 µM
same,IC50,[3],26.2 µM
CC(C)CNc1ccnc(NCc2csc(-c3ccc(Cl)cc3)n2)n1,IC50,MDA-MB-231,18.3 µM
same,IC50,[1],56.3 µM
same,IC50 at 72 h,[2],18.5 µM
same,IC50,SK-OV-3,34.1 µM
same,IC50,JIMT-1,26.9 µM
same,IC50,[3],16.6 µM
CC(C)CNc1cccc(NCc2csc(-c3ccccc3)n2)c1,IC50 at 72 h,[2],> 100 µM
same,IC50,[3],> 100 µM
CC(C)CNc1ccnc(NCc2csc(-c3ccccc3)n2)n1,IC50,MDA-MB-231,31.1 µM
same,IC50,[1],89.4 µM
same,IC50 at 72 h,[2],49.1 µM
same,IC50,SK-OV-3,21.4 µM
same,IC50,JIMT-1,33 µM
same,IC50,[3],37.9 µM
COc1cccc2c1C(=O)c1c(O)c3c(c(O)c1C2=O)C[C@@](O)(C(=O)CO)C[C@@H]3O[C@H]1C[C@H](N)[C@H](O)[C@H](C)O1 [DOXORUBICIN],IC50,MDA-MB-231,0.32 µM
same,IC50,[1],0.23 µM
same,IC50 at 72 h,[2],0.45 µM
same,IC50,SK-OV-3,0.19 µM
same,IC50,JIMT-1,0.37 µM
same,IC50,[3],0.25 µM
c1ccc(-c2nc(CNc3nccc(N4CCCCC4)n3)cs2)cc1,IC50,MDA-MB-231,14.6 µM
same,IC50,[1],48.3 µM
same,IC50 at 72 h,[2],12.3 µM
same,IC50,SK-OV-3,21.4 µM
same,IC50,JIMT-1,21.9 µM
same,IC50,[3],8.39 µM
c1ccc(-c2nc(CNc3ncccn3)cs2)cc1,IC50 at 72 h,[2],> 100 µM
same,IC50,[3],> 100 µM
c1ccc(-c2nc(CNc3nccc(N4CCC4)n3)cs2)cc1,IC50,MDA-MB-231,27.7 µM
same,IC50,[1],91.1 µM
same,IC50 at 72 h,[2],29.2 µM
same,IC50,SK-OV-3,33.3 µM
same,IC50,JIMT-1,25.7 µM
same,IC50,[3],21.5 µM
OC1CC2CC1CN2c1ccnc(NCc2csc(-c3ccccc3)n2)n1 (stereo not drawn),IC50 at 24 h,[4],27.5 µM
same,Activity,[5],Non-Toxic
same,Activity,U-87MG ATCC [6],Active
same,Activity,U-87MG ATCC [7],Dose-Dependent Effect
same,Activity,U-87MG ATCC [8],Active
same,Activity,[9],48.58%
same,IC50,MDA-MB-231,6.46 µM
same,Activity,[10],74.6%
same,Activity,U-87MG ATCC [11],Active
same,IC50,[1],23.1 µM
same,Activity,[12],54.28%
same,Activity,[13],72.7%
same,half-life,[14],2.1 h
same,inhibition,[15],Active
same,IC50 at 72 h,[2],5.61 µM
same,Activity,[16],41.2%
same,Activity,U-87MG ATCC [17],Active
same,IC50,SK-OV-3,8.21 µM
same,Activity,[18],73
same,IC50,JIMT-1,4.84 µM
same,Activity,U-87MG ATCC [19],Active
same,Activity,U-87MG ATCC [20],Active
same,Activity,[21],42.3
same,inhibition,[22],Active
same,Activity,[23],119.7
same,Activity,[24],21.31%
same,half-life,[25],4.2 h
same,IC50,[3],3.29 µM
same,Activity,[26],26.72%
same,Activity,U-87MG ATCC [27],Dose-Dependent Effect
same,Activity,[28],21.42%
same,inhibition,U-87MG ATCC [29],Active
c1ccc(-c2nc(CNc3nccc(NC4CC4)n3)cs2)cc1,IC50,MDA-MB-231,> 100 µM
same,IC50,[1],> 100 µM
same,IC50 at 72 h,[2],59.5 µM
same,IC50,SK-OV-3,52.5 µM
same,IC50,JIMT-1,68.8 µM
same,IC50,[3],72.3 µM
CC(C)CNc1ccnc(NCc2csc(-c3ccc(C(F)(F)F)cc3)n2)n1,IC50,MDA-MB-231,33 µM
same,IC50,[1],65.3 µM
same,IC50 at 72 h,[2],29.8 µM
same,IC50,SK-OV-3,39 µM
same,IC50,JIMT-1,38 µM
same,IC50,[3],20.1 µM
CCCCN(CCCC)c1ccnc(NCc2csc(-c3ccccc3)n2)n1,IC50,MDA-MB-231,21.7 µM
same,IC50,[1],35.4 µM
same,IC50 at 72 h,[2],14.2 µM
same,IC50,SK-OV-3,21.3 µM
same,IC50,JIMT-1,13.2 µM
same,IC50,[3],14.8 µM
